Read-outs that look alike come from different tables or passages of the source.
Key:
[1] = Biodistribution and pharmacokinetics in plasma and liver after intravenous administration in mice; assay type: in vivo; conditions: 5 mg/kg intravenous; for AUC(0-t) / Cmax: iv
Description: Based on the results of the potency and in vitro stability studies, conjugate 6 was selected for in vivo pharmacokinetic analysis following a single intravenous injection of 5 mg/kg in male C57 BL/6. Doses of PSN-357 intravenous were used as standard regimens for comparison.
Male C57 BL/6 mice (18–20 g, 5–6 weeks old) were provided by the Laboratory Animal Center of Academy of Military Medical Science of People’s Liberation Army, and were reared in standard rodent cages in animal house of Chengde Medical University, under the condition of a constant temperature of 24 °C (±2 °C) and a 12 h light/dark cycle. PSN-357 and conjugate 6 were injected through the caudal vein. For each sampling time point, three mice were treated with a single dose of either PSN-357 or conjugate 6 at 5 mg/kg in 10% DMSO/saline solutions. Blood and liver samples were taken at 0.0833, 0.25, 0.5, 1, 2, 4, 6 and 24 h following intravenous administration, and stored at −80 °C until analysis. Aliquots of all biological matrixes were deproteinized with a mixture of methanol/acetonitrile (1:1). The suspension was vortexed, mixed, and centrifuged at 13000 rpm for 10 min. The organic phase was injected into the LC-MS/MS system. PK calculations and statistical comparisons on PK data were performed according to a non-compartmental kinetic model with validated software (Kinetica™ version 5.1, Thermo Electron Corporation, USA).

[2] = Stability in simulated intestinal fluid (SIF); assay type: in vitro ADME; conditions: SIF pH 6.79 with pancreatin, 2 μM, 37 °C, 24 h incubation
Description: (§1) All the conjugates were tested for their chemical and metabolic stability in multiple assays, including simulated gastric fluid (SGF), simulated interstinal fluid (SIF), mouse plasma, and mouse liver microsome (MLM).
(§2) For the stability in SGF (Fig. 8) and SIF (Fig. 9), the conjugates could be divided into three groups: (1) stable conjugates 2, 6 and 9. […] The two conjugates were degraded within 6 h and 1 h in SGF and SIF, respectively, with alomost no conjugates at the end of the 24 h incubation in both SGF and SIF; (3) complicated conjugates 3, 4, 5 and 8.
(§3) The simulated gastrointestinal fluids were prepared according to USP specifications. For SGF, NaCl (0.12 g) and pepsin (0.18 g, from porcine stomach mucosa) was dissolved in HCl (0.42 mL) and sufficient H2O was added to make 60 mL. The pH of the test solution was determined as 1.21 by pH meter. For the SIF, KH2PO4 (0.408 g) and pancreatin (0.6 g, from porcine pancreas) was dissolved in H2O (60 mL). The pH of the test solution was determined as 6.79 by pH meter. Each test compound was dissolved in DMSO and diluted to a final concentration of 2 μM in SIF and SGF. The final concentrations of DMSO and CH3CN in the incubation mixture were 0.2% and 0.45%. Aliquots of these solutions were pipetted into glass tubes, and placed in a 37 °C shaking water bath. Test samples at corresponding time point (1, 2, 6, 24 h) were removed at the end of incubation time and immediately mixed with 800 μL of cold acetonitrile containing 500 ng/mL tolbutamide (internal standard). Samples were subjected to centrifuge at 4000 rpm, 4 °C for 20 min. Aliquots 60 μL of supernatant was combined with 120 μL water for LC-MS/MS analysis.

[3] = Stability in simulated gastric fluid (SGF); assay type: in vitro ADME; conditions: SGF pH 1.21 with pepsin, 2 μM, 37 °C, 24 h incubation
Description: as §1, §2, §3

HepG2 cells = test: Glycogenolysis inhibition in HepG2 cells; assay type: cell-based, human; conditions: HepG2 cells, 60-min incubation with 0.3 nM glucagon, mean ± S.D. of three, NI means no inhibition, read-out: IC50 (glycogenolysis inhibition, HepG2 cells)
Text: (§4) To evaluate the effects of all compounds in cells, the glycogenolysis assays were established in both rat and human liver cells based on the published method. […] The inhibitory activities of the derivatives of PSN-357 (e.g. 25–28) were also explored. It is not surprising that the derivatives still retained micromolar inhibitory activities. Introduction of steric bulks to the hydroxyl group (e.g. 33, 40, 42, 48) led to a complete loss of activity. Data analysis indicated no clear SAR for the substitutents in the cell-based assays.
(§5) The inhibition of hepatic glycogenolysis was monitored by the measurement of liver glycogen, which was done quantitatively by the anthrone reagent (Sigma) colorimetric method based on the published method. Isolated rat hepatocytes or HepG2 cells (Sigma) were treated with the test compound or DMSO solvent (final concentration, 0.10%), followed by 60-min incubation with 0.3 nM glucagon (GGN). Assays were terminated by centrifugation, and cells were digested with 30% KOH followed by glycogen determination. The IC50 values were estimated by fitting the inhibition data to a dose-dependent curve using a logistic derivative equation.

isolated rat hepatocytes = test: Glycogenolysis inhibition in isolated rat hepatocytes; assay type: cell-based; conditions: mean ± S.D. of three, NI means no inhibition
Text: as §4, §5

[4] = male, C57 BL/6, mouse, liver tissue, read-out: MRT0-t, liver
[5] = male, C57 BL/6, mouse, liver, 5 mg/kg, liver tissue, read-out: AUC0-t, liver
[6] = male, C57 BL/6, mouse, plasma, read-out: MRT0-t, plasma
[7] = male, C57 BL/6, mouse, plasma, 5 mg/kg
[8] = male, C57 BL/6, mouse, plasma, 5 mg/kg, plasma, read-out: AUC0-t, plasma

| SMILES | Cmax, liver ([1]; liver tissue) | MRT last [1, 4] | AUC(0-t) [1, 5] | MRT last [1, 6] | concentration at 240 min ([1]; male, C57 BL/6, mouse, plasma, 240 min, read-out: plasma concentration at 240 min after dosing) | Cmax [1, 7] | AUC(0-t) [1, 8] | Cmax, plasma ([1]; plasma, 5 mg/kg) | stability in SIF (in words) [2] | stability in SGF (in words) [3] | IC50 (HepG2 cells) | IC50 (HepG2 cells; Homo sapiens, HepG2, 1 h) | IC50 (isolated rat hepatocytes; Rattus norvegicus, Hepatocyte, 1 h, read-out: IC50 (glycogenolysis inhibition, rat hepatocytes), isolated rat hepatocytes, 60-min incubation with 0.3 nM glucagon) | IC50 (isolated rat hepatocytes; read-out: IC50 (glycogenolysis inhibition, rat hepatocytes), isolated rat hepatocytes, 60-min incubation with 0.3 nM glucagon) | AUC0-t, liver ([1]; liver tissue, 5 mg/kg) | Kp ([1]; male, C57 BL/6, mouse, liver and plasma, read-out: AUCliver/AUCplasma ratio) | AUC0-t, plasma ([1]; plasma, 5 mg/kg) | time of secondary peak in plasma ([1]; plasma, perhaps due to enterohepatic circulation) | IC50 (isolated rat hepatocytes; Hepatocyte, 1 h, isolated rat hepatocytes, 60-min incubation with 0.3 nM glucagon, read-out: IC50 (glycogenolysis inhibition, rat hepatocytes)) |
| --- | --- | --- | --- | --- | --- | --- | --- | --- | --- | --- | --- | --- | --- | --- | --- | --- | --- | --- | --- |
| C[C@H](CCC(=O)N[C@@H](CC(=O)O)C(=O)OC1CCN(C(=O)[C@H](Cc2ccc(F)cc2)NC(=O)c2cc3cc(Cl)ncc3[nH]2)CC1)[C@H]1CC[C@H]2[C@@H]3[C@H](O)C[C@@H]4C[C@H](O)CC[C@]4(C)[C@H]3C[C@H](O)[C@]12C [Conjugate 6] | 3094.55 ng/mL | 4.42 h | 3980 ng·h/mL | 7.52 h | 97 ng/mL | 726 ng/mL | 1520 ng·h/mL | 726.2 ng/mL | stable up to 24 h | stable | 6.12 ± 1.38 µM | 6.1 µM | 13.4 µM | 13.4 ± 2.55 µM |  |  |  |  |  |
| O=C(N[C@@H](Cc1ccc(F)cc1)C(=O)N1CCC(O)CC1)c1cc2cc(Cl)ncc2[nH]1 [PSN-357] | 6677.85 ng/mL | 4.52 h | 9710 ng·h/mL | 3.18 h |  | 628 ng/mL | 965 ng·h/mL | 628.35 ng/mL |  |  |  | 3.1 ± 0.37 µM |  |  | 9711.94 ng·h/mL | 10.1 | 965.16 ng·h/mL | 60 min | 10.7 ± 2.73 µM |

From publication PMC5320518, “Novel Liver-targeted conjugates of Glycogen Phosphorylase Inhibitor PSN-357 for the Treatment of Diabetes: Design, Synthesis, Pharmacokinetic and Pharmacological Evaluations” (Scientific Reports, 2017)
